Each structure is given as a SMILES string.

This assay concerns the target T1, CMMBP (CmmC) (Arthrobacter globiformis, UniProt D2YYD8).
T1 construct: N-terminal 6xHis tag, pET-28b (NdeI/BamHI), E. coli Rosetta2 (DE3); structure domains span residues 31-421; tag cleavage not mentioned
T1 sequence (D2YYD8 26-421): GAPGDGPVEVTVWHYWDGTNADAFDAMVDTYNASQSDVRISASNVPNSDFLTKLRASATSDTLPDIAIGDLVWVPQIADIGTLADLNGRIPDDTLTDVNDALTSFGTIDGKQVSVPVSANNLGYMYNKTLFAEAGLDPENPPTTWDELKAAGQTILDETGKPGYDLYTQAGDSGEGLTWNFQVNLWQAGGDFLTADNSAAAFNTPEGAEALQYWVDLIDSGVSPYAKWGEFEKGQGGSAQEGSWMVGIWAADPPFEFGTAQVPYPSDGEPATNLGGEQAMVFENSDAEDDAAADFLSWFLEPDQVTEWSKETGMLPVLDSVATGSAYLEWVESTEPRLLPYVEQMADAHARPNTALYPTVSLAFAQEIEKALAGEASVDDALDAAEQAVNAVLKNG
The assay is described as follows: isothermal titration calorimetry. Type of assay: binding. (Isothermal titration calorimetry measures the heat released or taken up as one component is titrated into another.)

Usually Kd stands for a measure of binding affinity in units of concentration. A higher Kd goes with weaker binding. In turn, `OC[C@H]1O[C@@H]2OC[C@H]3O[C@H](O[C@H]4[C@H](O)[C@@H](O)[C@@H](OC[C@H]5O[C@H](O[C@H]1[C@H](O)[C@H]2O)[C@H](O)[C@@H](O)[C@@H]5O)O[C@@H]4CO)[C@H](O)[C@@H](O)[C@@H]3O` [CMM, cyclo-{→6}-α-D-Glcp-(1→4)-α-D-Glcp-(1→6)-α-D-Glcp-(1→4)-α-D-Glcp-(1→)] returned a dissociation constant Kd of 9.6 nM. `OC[C@H]1O[C@H](O[C@H]2[C@H](O)[C@@H](O)[C@@H](OC[C@H]3O[C@H](O[C@H]4[C@H](O)[C@@H](O)C(O)O[C@@H]4CO)[C@H](O)[C@@H](O)[C@@H]3O)O[C@@H]2CO)[C@H](O)[C@@H](O)[C@@H]1O` (stereo partly drawn) [MM, α-maltosyl-(1→6)-maltose]: where the note is “20 mM Tris-HCl pH 8.0, 25 °C, one-site model, printed in parentheses as not reliable (weak affinity, low c value)”, the “Ka (×10^8 M^-1)” value is recorded as “(0.0022 ± 0.0014) × 10^8”.

Values taken from paper PMC7676653, “Molecular analysis of cyclic α-maltosyl-(1→6)-maltose binding protein in the bacterial metabolic pathway” (PLoS ONE, 2020).
